Data: ChEMBL document CHEMBL5390285, “Isolation and In Vitro and In Vivo Activity of Secondary Metabolites from Clerodendrum polycephalum Baker against Plasmodium Malaria Parasites” (J Nat Prod, 2023)

Experiments:
Plasmodium falciparum = test: Antiplasmodial activity against synchronized ring stage Plasmodium falciparum 3D7 infected in human erythrocytes assessed as inhibition of parasite proliferation preincubated for 48 hrs followed by [3H]-hypoxanthine incorporation and measured after 24 hrs by microbeta liquid scintillation counter analysis; format: functional, organism-based
Plasmodium berghei [1] = test: (§1) In vivo antimalarial activity against Plasmodium berghei NK65 infected in Swiss albino mouse assessed as reduction in parasitemia in erythrocytes at 10 mg/kg, po administered once daily for 4 days and measured on day 5 post-infection by Giemsa staining based microscopic analysis relative to control; format: functional; parameters: scale not given: the % may be the effect or the level left; conditions: time 4 day
[2] = Cytotoxicity against human NFF cells assessed as growth inhibition incubated for 72 hrs by SRB assay; format: toxicity, cell-based
Plasmodium berghei [3] = test: as §1, with “chemosuppression of parasite” for “reduction in parasitemia”; format: functional; conditions: time 4 day
Plasmodium berghei [4] = test: In vivo antimalarial activity against Plasmodium berghei NK65 infected in Swiss albino mouse assessed as chemosuppression of parasite in erythrocytes at 20 mg/kg, po once daily for 4 days and measured on day 5 post-infection by Giemsa staining based microscopic analysis relative to control; format: functional; conditions: time 4 day
Plasmodium berghei [5] = test: In vivo antimalarial activity against Plasmodium berghei NK65 infected in Swiss albino mouse assessed as reduction in parasitemia in erythrocytes at 20 mg/kg, po administered once daily for 4 days and measured on day 5 post-infection by Giemsa staining based microscopic analysis relative to control; format: functional; parameters: scale not given: the % may be the effect or the level left; conditions: time 4 day
[6] = Selectivity index, ratio of IC50 for cytotoxicity against human NFF cells to the IC50 for antiplasmodial activity against Plasmodium falciparum 3D7 infected in human erythrocytes; format: toxicity, cell-based; conditions: read-out: Ratio IC50

CC(=O)OC[C@@]12[C@@H](OC(C)=O)C[C@@H](C)[C@](C)(CCC3CCOC3=O)[C@H]1CCC[C@@]2(O)CCl (some centres not stated)
IC50 (Plasmodium falciparum): > 50 µM

CC1(C)CCC[C@]2(C)c3c(c(O)c4cc(CO)oc4c3O)C(=O)C[C@@H]12
IC50 (Plasmodium falciparum): > 40 µM

CC(=O)OC[C@@]12[C@@H](OC(C)=O)C[C@@H](C)[C@](C)(CCC3CCOC3=O)[C@H]1CCC[C@@]21CO1 (some centres not stated)
IC50 (Plasmodium falciparum): > 50 µM

CC1(C)C[C@H](O)C[C@@]2(C)OC(=O)C=C12 [LOLIOLIDE]
IC50 (Plasmodium falciparum): > 50 µM

CCN(CC)CCCC(C)Nc1ccnc2cc(Cl)ccc12 (configuration not stated) [CHLOROQUINE]
Activity (Plasmodium berghei [1]): 1.78%
IC50 at 72 h [2]: 31.7 µM
Activity (Plasmodium berghei [3]): 85%

CC1(C)CCC[C@@]2(C)C1=C(O)C(=O)c1c2c(O)c2oc(CO)cc2c1O
IC50 (Plasmodium falciparum): 30 µM

COc1ccc(-c2cc(=O)c3c(O)cc(O)cc3o2)cc1 [ACACETIN]
IC50 (Plasmodium falciparum): < 40 µM

CC(=O)OC[C@@]12[C@@H](OC(C)=O)C[C@@H](C)[C@](C)(CCC3CCOC3=O)[C@H]1CCC[C@@H]2C=O (some centres not stated)
IC50 (Plasmodium falciparum): 27.8 µM

C=CC1=C(C)C2=NC/1=C\C1=NC(=C\C3=C(C)C4=C(O)[C@H](C(=O)OC)/C(=C5/N/C(=C\2)[C@@H](C)[C@@H]5CCC(=O)OC)C4=N3)/C(CC)=C1C
IC50 (Plasmodium falciparum): 4.49 µM
Activity (Plasmodium berghei [4]): 87%
Activity (Plasmodium berghei [1]): 2.52%
IC50 at 72 h [2]: > 50 µM
Activity (Plasmodium berghei [5]): 1.5%
selectivity ratio [6]: > 11
Activity (Plasmodium berghei [3]): 79%
